“Also recorded” adds a separate entry of the source.
Columns and labels:
[1] = test system: rat glial cell gap junction; experiment: Gap junction dye coupling assay (Lucifer yellow dye transfer; microinjection or scrape loading); format: cell-based; settings: for potency of gap junction inhibition relative to oleamide: comparison in words
Experimental: (§1) Rat glial cells (Suter et al., 1987) obtained from Dr. Trosko's laboratory were cultured in standard plastic tissue cultureware in Richter's Improved Minimal Essential Medium (Irvine Scientific, Santa Ana, CA), supplemented with 10% fetal calf serum and 50 µg/ml gentamicin sulfate, and incubated in a humidified atmosphere of 95% air/5% CO2 at 37°C. The cells were passaged by trypsinization and used at passages 4-8. BHK (baby hamster kidney) cells that were stably transfected with a β1 connexin cDNA (Kumar et al., 1995) were cultured in DMEM medium supplemented with 5% fetal calf serum and 50 µg/ml gentamicin sulfate, and incubated in a humidified atmosphere of 95% air/5% CO2 at 37° C. In order to induce β1 connexin expression in the BHK cells, 100 µM zinc acetate was added to culture medium for 8-18 hours when the cell culture was about 90% confluent.
(§2) Gap junctional communication in glial cell and BHK/β1 cell cultures was assayed by microinjection of 5% Lucifer yellow CH dye in 0.1 M LiCl solution, and quantitated by determining the number of directly adjacent, neighboring cells that received dye (dye-coupling). Micropipettes were loaded with the dye solution by backfilling. Cells were visualized using a Nikon Diaphot inverted phase contrast/ epifluorescent microscope, and impaled with dye-filled micropipettes using an Eppendorf microinjector (model 5246). Five minutes after dye-injection, the transfer of dye to directly adjacent cells was determined using epifluorescent illumination. For each treatment condition, ten cells were microinjected in each of three dishes, the total number of dye-coupled neighboring cells was calculated and compared to determine the % dye-coupling. For scrape loading measurements, Lucifer yellow CH (0.05% dye in PBS) was loaded intracellularly by cutting or scraping cells in the monolayer with a sharp knife. The dye solution was left in the dish for 90 seconds, then the solution was discarded, and the dish subsequently washed with PBS. The cells were examined for dye transfer with an inverted epifluorescence microscope, and the degree of communication was assessed by determining the extent of Lucifer yellow transfer into contiguous cells.

[2] = test system: rat glial cells; experiment: Calcium wave propagation (Fluo-3, mechanical stimulation); format: cell-based
Experimental: Rat glial cells were loaded with 5 µM Fluo-3/AM (Calbiochem) in Hank's balanced salt solution containing 25 mM HEPES buffer (HBSS/HEPES) for 1 hour, at which point the loading buffer was exchanged for new HBSS/HEPES buffer. The cell cultures were then left at room temperature for at least 30 minutes. Mechanical stimulation of a single cell was performed as follows: a glass micropipette (tip diameter of approximately 0.5 µm) was micro-manipulated downward on to a single cell causing a transient deformation of the cell membrane. The calcium image was then examined with an inverted fluorescence microscope, and photographed with a digital fluorescence microscope (excitation = 506 nm, emmision = 526 nm). The degree of calcium wave propagation was quantitated by counting at different time points the number of transmitting cells in one linear direction away from the stimulated cell. Junctional dye transfer rates were simultaneously examined by microinjection of Lucifer yellow CH in the same dishes; the methods for dye transfer assay was described in assay procedures, gap junction dye coupling assays. For calcium wave and dye transfer studies, the drug was preincubated with the glial cells for 10 minutes, and the drug was left in the experimental solution throughout the examination. All measurements were performed at room temperature.

[3] = test system: BHK/β1 cells; experiment: Gap junction dye transfer between β1 connexin-transfected BHK cells; format: cell-based, baby hamster
Experimental: as §1, §2

[4] = test system: α1 connexin; experiment: Immunoblotting of α1 connexin phosphorylation isoforms; format: cell-based, rat; settings: 50 µM, 4 hours
Experimental: Plasma membrane fractions containing gap junctions were obtained after hypotonic alkali extraction of the glial cells. The extracted protein was dissolved in 2% SDS and the total protein was determined using the Bio-Rad DC Protein Assay kit (Bio-Rad Corp.). 10 µg of protein was electrophoresed by 10% SDS-PAGE, and subsequently blotted electrophoretically on to Immobilon-P membranes (Millipore Corp.). Gap junction protein was detected using anti-α1 connexin polyclonal rabbit antibodies, and the HRP/Chemiluminescence detection kit (Amersham Corp.) following the manufacturer's instructions.

[5] = result in words, concentration not stated at the place

CCCCCCCC/C=C\CCCCCCCC(=O)NCC(=O)OCC [N-oleoyl glycine ethyl ester]
inhibition of gap junction-mediated dye transfer [1, 5]: effective, albeit slightly less potent, inhibitor

CCCCCCCC/C=C\CCCCCCC(S)C(N)=O (stereo not shown) [CHSH]
inhibition of gap junction-mediated dye transfer [1, 5]: ineffective

Cc1ccc(C(=O)Nc2ccc(S(=O)(=O)O)c3cc(S(=O)(=O)O)cc(S(=O)(=O)O)c23)cc1NC(=O)c1cccc(NC(=O)Nc2cccc(C(=O)Nc3cc(C(=O)Nc4ccc(S(=O)(=O)O)c5cc(S(=O)(=O)O)cc(S(=O)(=O)O)c45)ccc3C)c2)c1 [suramin, reference compound]
gap junction communication ([1]; 200 µM): without affecting gap junction communication | glial calcium wave transmission ([2]; 200 µM): blocked glial calcium wave transmission

CCCCCCCC/C=C\CCCCCCC(C)(C)C(N)=O [α,α-dimethyl oleamide]
inhibition of gap junction-mediated dye transfer [1, 5]: potent inhibitors

CCCCCCCC/C=C\CCCCCCCC(OC)OC [oleyl aldehyde dimethyl acetal, Oleyl aldehyde dimethyl acetal]
inhibition of gap junction-mediated dye transfer [1, 5]: inactive

CCCCCCCC/C=C/CCCCCCCC(N)=O [trans-9-octadecenamide]
inhibition of gap junction-mediated dye transfer ([1]; result in words, concentration not given, listed as 18:1^9-trans): no observable inhibition | inhibition of gap junction-mediated dye transfer [1, 5]: ineffective; also recorded: no effect | effect on dye transfer ([3]; 50 µM, 4 hours of treatment): no effect | effect on dye transfer ([3]; concentration not given): no effect | α1 connexin phosphorylation profile (P2 isoform) [4]: No change

CCCCCCCC/C=C\CCCCCCCC(=O)N(C)CC(=O)O [N-oleoyl sarcosine]
inhibition of gap junction-mediated dye transfer [1, 5]: effective inhibitors

CCCCCCCC/C=C\CCCCCCC(Cl)C(N)=O (stereo not drawn) [α-chlorooleamide]
inhibition of gap junction-mediated dye transfer [1, 5]: effective inhibitors

CCCCCCCC/C=C\CCCCCCCCOC(C)=O [oleyl acetate, Oleyl acetate]
inhibition of gap junction-mediated dye transfer [1, 5]: progressively reduced effectiveness

CCCCCCCC/C=C\CCCCCCCCO [oleyl alcohol, Oleyl alcohol]
inhibition of gap junction-mediated dye transfer [1, 5]: progressively reduced effectiveness

COCCCCCCCC/C=C\CCCCCCCC(N)=O [CH2OCH3]
inhibition of gap junction-mediated dye transfer [1, 5]: did not effect the gap junction inhibition

CCCCCCCCC#CCCCCCCCC(N)=O [compound 2, 9-octadecynamide]
potency of gap junction inhibition relative to oleamide [1]: only slightly less active than oleamide | inhibition of gap junction-mediated dye transfer [1, 5]: potent inhibitor

CCCCCCCC/C=C\CCCCCCCC(=O)OC[C@H](CO)OC(C)=O [(2S)-1-oleoyl-2-acetylglycerol, reference compound]
inhibition of gap junction-mediated dye transfer [1, 5]: not inhibitors

NC(=O)CCCCCCC/C=C\CCCCCCCCO [terminal alcohol, 18-hydroxyoleamide]
inhibition of gap junction-mediated dye transfer ([1]; 50 µM): no gap junction inhibition

CCCCCCCC/C=C\CCCCCCC(O)C(N)=O (stereo not drawn) [α-hydroxy oleamide, 2-hydroxy-9Z-octadecenamide]
inhibition of gap junction-mediated dye transfer [1, 5]: effective inhibitors

NC(=O)CCCCCCC/C=C\CCCCCCCC(N)=O [symmetrical 18:1^9 dicarboxamide]
inhibition of gap junction-mediated dye transfer ([1]; 50 µM): no gap junction inhibition

CCCCCCCC/C=C\CCCCCCCC(=O)CBr [BrCH2, 1-Bromo-10Z-nonadecen-2-one]
inhibition of gap junction-mediated dye transfer [1, 5]: substantially less effective

CCCCCCCC/C=C\CCCCCCC(C)C(N)=O (stereo not drawn) [α-methyl oleamide]
inhibition of gap junction-mediated dye transfer [1, 5]: potent inhibitors

CCCCCCCC/C=C\CCCCCCCC(=O)NCC(=O)O [N-oleoyl glycine]
inhibition of gap junction-mediated dye transfer [1, 5]: ineffective

CCCCCCCC/C=C\CCCCCCCC(=O)OCC [ethyl oleate]
inhibition of gap junction-mediated dye transfer [1, 5]: progressively reduced effectiveness

CC/C=C\C/C=C\C/C=C\CCCCCCCC(N)=O [α-linolenamide]
inhibition of gap junction-mediated dye transfer ([1]; 50 µM): ineffective

NC(=O)CCCCCCC/C=C\CCCCCCCC(=O)O [carboxylic acid]
inhibition of gap junction-mediated dye transfer ([1]; 50 µM): no gap junction inhibition

CCCCCCCCC/C=C\CCCCCCC(N)=O [cis-8-octadecenamide]
inhibition of gap junction-mediated dye transfer ([1]; 50 µM): significant inhibitors | potency of gap junction inhibition relative to oleamide [1]: less potent than oleamide at lower doses

CCCCCC/C=C\CCCCCCCC(N)=O [palmitoleamide, Palmitoleamide]
inhibition of gap junction-mediated dye transfer [1, 5]: potent activity

CCCCCCCC/C=C\CCCCCCCC(=O)N(C)CC(=O)OCC [N-oleoyl sarcosine ethyl ester]
inhibition of gap junction-mediated dye transfer [1, 5]: effective inhibitors

CCCCCCCCCCCCCCCCCC(N)=O [18:0, stearamide]
inhibition of gap junction-mediated dye transfer ([1]; result in words, concentration not given, listed as octadecanamide): ineffective | inhibition of gap junction-mediated dye transfer [1, 5]: no observable inhibition

CCCCCCCC/C=C\CCCCCCC(SC(C)=O)C(N)=O (stereo not drawn) [α-acetylthiooleamide]
inhibition of gap junction-mediated dye transfer [1, 5]: effective inhibitors

CCCCCCCC/C=C\CCCCCCCC(=O)N(C)OC [MeONMe]
inhibition of gap junction-mediated dye transfer [1, 5]: most potent of the agents examined

CCCCCCCO [heptanol, reference compound]
block of dye transfer ([1]; 3 mM): completely blocking | minimal effective concentration ([1]; Rattus norvegicus, Glial cell, read-out: concentrations required to inhibit junctional communication): 3000 µM | effect on dye transfer ([3]; concentration not given): inhibitory effects | calcium wave propagation ([2]; 3 mM): completely blocking

CCCCC/C=C\C/C=C\C/C=C\CCCCC(N)=O [γ-linolenamide]
inhibition of gap junction-mediated dye transfer [1, 5]: effective but less potent inhibitor

CCCCCC/C=C\CCCCCCCCCC(N)=O [cis-11-octadecenamide]
inhibition of gap junction-mediated dye transfer ([1]; 50 µM): only slightly affected junctional coupling | inhibition of gap junction-mediated dye transfer ([1]; 100 µM): completely blocked dye transfer

CCCCC/C=C\C/C=C\CCCCCCCC(N)=O [linoleamide, Linoleamide]
potency of gap junction inhibition relative to oleamide [1]: lower than oleamide

CCCCC/C=C\C/C=C\C/C=C\C/C=C\CCCC(N)=O [arachidonamide]
potency of gap junction inhibition relative to oleamide [1]: not quite as potent as oleamide | inhibition of gap junction-mediated dye transfer [1, 5]: effective inhibitor

CCCCCCCC/C=C\CCCCCCCC(=O)CCl [ClCH2]
inhibition of gap junction-mediated dye transfer [1, 5]: substantially less effective

CCCCCCCC/C=C\CCCCCCCC(=O)NCC(N)=O [N-oleoyl glycinamide]
inhibition of gap junction-mediated dye transfer [1, 5]: ineffective

CC1(C)[C@@H](O)CC[C@]2(C)[C@H]3C(=O)C=C4[C@@H]5C[C@@](C)(C(=O)O)CC[C@]5(C)CC[C@@]4(C)[C@]3(C)CC[C@@H]12 [18β-GA, 18β-glycyrrhetinic acid, reference compound]
block of dye transfer ([1]; 40 µM): completely blocking | potency of gap junction inhibition relative to oleamide [1]: blocked dye transfer at doses comparable to oleamide | effect on dye transfer ([3]; concentration not given): inhibitory effects | calcium wave propagation ([2]; 40 µM, 10 minutes prior to mechanical stimulation): completely blocking; also recorded: did not propagate to any other cells

CCCCCCCC/C=C\CCCCCCCC(=O)NCCCO [oleyl propanolamide]
inhibition of gap junction-mediated dye transfer [1, 5]: comparable properties

CCCCCCCC/C=C\CCCCCCCC(=O)OC [methyl oleate]
inhibition of gap junction-mediated dye transfer [1, 5]: progressively reduced effectiveness

CCCC/C=C\CCCCCCCC(N)=O [14:1^9, Myristoleamide]
inhibition of gap junction-mediated dye transfer [1, 5]: loss of activity

— EP1039902B1, “INHIBITORS OF GAP JUNCTION COMMUNICATION” (THE SCRIPPS RESEARCH INSTITUTE, priority 1997, dated 1999)
